Results as given in US20040005294A1, “IGFBP-3 in the diagnosis and treatment of cancer” (priority 2002, published 2004).

Key:
[1] = test system: PI3K/Akt pathway in 1799 cells; assay: Immunoblot of pAkt and pGSK-3β, 1799 cells; assay type: cell-based, human; conditions: 2-4 μM
Protocol: Whole cell lysates from 1×10^6 cells were prepared in lysis buffer as described (Lonardo et al., 2002). Equivalent amounts of protein were resolved by sodium dodecyl sulfate (SDS)-polyacrylamide gels (7.5%-12%) and transferred to a nitrocellulose membrane. After the membrane was blocked in Tris-buffered saline (TBS) containing 0.05% Tween 20 (TBST) and 5% (w/v) nonfat powdered milk, the membrane was incubated with primary antibody at the appropriate dilution in TBS-5% nonfat milk at 4° C. for 16 h. The membrane was then washed multiple times with TBST and incubated with the appropriate horseradish peroxidaseconjugated secondary antibody for 1 h at room temperature. The protein-antibody complexes were detected by enhanced chemilurminescence (ECL kit; Amersham, Arlington Heights, Ill.), according to the manufacturer's recommended protocol. […]

[2] = test system: 1799 cells; assay: MTT proliferation assay, 1799 cells; assay type: cell-based, human; conditions: 2×10^−6 M or 4×10^−6 M, 2 days
Protocol: To measure the effects of deguelin on cell proliferation, NHBE, 1799, 1198, 1170-1, and HB56B cells were plated at concentrations of 2×10^3 to 4×10^3 cells/well in 96-well plates. The next day, cells were treated with either 0.1% DMSO as a diluent control or various concentrations of deguelin (final DMSO concentration=0.1%). At the end of the assay time period, cell proliferation was measured by the 3-(4,5-dimethylthiazol-2-yl)-2,5-diphenyltetrazolium bromide (MTT) assay as described (Lee et al., 2002). Six replicate wells were used for each analysis, and data from replicate wells are presented as means with 95% confidence intervals (CIs). For some experiments, the drug concentration required to inhibit cell growth by 50% (IC50) was determined by interpolation from dose-response curves. At least three independent experiments were performed.
To determine whether deguelin-induced antiproliferative effects on premalignant HBE cells were mediated through the inhibition of the PI3K/Akt pathway, 2×10^5 1799 cells/well or 1×10 ^6 squamous HBE cells/well in six-well plates were infected with 5×10 ^3 particles/cell of a control virus (Ad5CMV) or with 1×10^3 or 5×10^3 particles/cell of Ad5CMV-MyrAkt-HA, an adenoviral vector that expresses a constitutively active Akt. (MyrAkt) in KSFM. After 1 day of infection, cells were treated with 10^−7M or 10^−6M deguelin, 2×10^−6 M or 4×10^−6M N-(4-hydroxyphenyl)retinamide (4-HPR), or 0.1% DMSO as a control and then incubated for 1 or 2 days. Apoptosis was analyzed using the APO-BrdU staining kit for TUNEL, Western blot analyses for caspase-3, and the cleavage of PARP.

[3] = test system: H1299 cells; assay: Apoptosis by APO-BRDU staining and flow cytometry; assay type: cell-based, human; conditions: serum-free medium, 100 ng/ml IGF-I, 3 days
Protocol: Apoptosis was measured using the APO-BRDU staining kit (Phoenix Flow Systems, San Diego, Calif.) as previously described (Sueoka et al., 2000). Briefly, H1299 cells were untreated or infected with Ad5CMV or Ad5CMV-BP3, and then allowed to grow in serum-free medium or medium containing 10% serum or 100 ng/ml IGF-I for 3 days. Floating and adherent cells were analyzed using a FACScan flow cytometer (Becton Dickinson, San Jose, Calif.) to determine the percentage of apoptotic cells. The percentage of dead cells was determined by FACS analysis of propidium iodide-stained nuclei. Apoptosis was also determined by detecting of nucleosomal DNA fragmentation, which was measured using the TACS apoptotic DNA laddering kit (Trevigen, Inc., Gaithersburg, Md.) according to the manufacturer's protocol. Briefly, DNA was isolated from untreated or virus-infected H1299 cells by incubating the cells in lysis buffer. DNA samples were then subjected to electrophoresis on a 1.5% agarose gel and visualized by ethidium bromide staining. […] Apoptosis was measured using the APO-BRDU staining kit as described above.

[4] = test system: NSCLC cell lines; assay: MTT cell growth assay, NSCLC cell lines; assay type: cell-based, human; conditions: serum-free medium, 3 days
Protocol: To measure the effects of IGF-I and IGF-II on proliferation of NSCLC cells, 2×10^3 NSCLC cell lines were incubated in serum-free medium containing 0.01-500 ng/ml IGF-I or IGF-II for 3 days. To measure the effects of Ad5CMV-BP-3 on proliferation of NHBE and NSCLC cell lines, these cells were seeded at 1×10^−2×10^3 cells/well in 96-well plates. After 1 day, cells were untreated or infected with 1×10^3, 5×10^3, or 1×10^4 particles/cell of Ad5CMV-BP3 or Ad5CMV (parental virus) as a viral control. Infection was allowed to occur for 2 h in the absence of serum, and infected cells were grown in medium containing 100 ng/ml or 250 ng/ml IGF-I. After 3 days of incubation, the growth of infected cells was measured by the 3-(4,5-dimethylthiazol-2-yl)-2,5-diphenyltetrazolium bromide (MTT) assay as previously described (Sueoka et al., 2000).

[5] = test system: IGFBP-3 mRNA in H1299 cells; assay: Northern blot of IGFBP-3 expression after demethylating agent; assay type: cell-based, human; conditions: 5 days, RPMI 1640 with 2% FCS
Protocol: NSCLC cell lines and H1299 cells treated with 0.1, 1, or 5 μM of 5-aza-dC (Sigma, St. Luois, Mo.) for 5 days in RPMI 1640 medium containing 2% FCS were lysed in 4.0 M guanidinium isothiocyanate, and total cellular RNA was extracted as described previously (Kim et al., 1995). 20 μg of RNA was subjected to electrophoresis on a 1% agarose gel containing 2% formaldehyde. After gels were soaked in 50 mM NaOH/1×standard saline citrate (SSC) for 20 min followed by 10×SSC for 20 min, RNA was transferred onto a Zeta-Probe membrane (Bio-Rad Laboratories, Hercules, Calif.) overnight by the capillary transfer method. Membranes were cross-linked and then incubated in the hybridization solution containing […] IGFBP-3 or glyceraldehyde-3-phosphate dehydrogenase (GAPDH) cDNA as a control. The probe was labeled using a Prime-It® II Random Primer Kit (Stratagene, La Jolla, Calif.) and harvested with MicroSpin™ S-300 HR Columns (Amersham Phamacia Biotech Inc., Piscataway, N.J.). After overnight incubation, membranes were washed in high stringency condition and exposed to enhanced chemiluminescence (ECL) films for autoradiography.

[6] = test system: chick embryo CAM; assay: Chorioallantoic membrane angiogenesis induced by bFGF; assay type: in vivo; conditions: bFGF 50 ng alone, 72 h; positive eggs/total
Protocol: To assess whether IGFBP-3 is able to inhibit angiogenesis chick embryos were induced with IGFBP3 and dnIGFIR. On day 10, each CAM was exposed to bFGF (50 ng/disk) in the absence or presence of 10^4 particles of Ad5CMV alone, Ad5CMV-IGFBP3, or Ad5CMV-dnIGFIR. After 72 h of incubation, a fat emulsion was injected into the CAM to visualize the blood vessels. CAMs were examined with a microscope to count the positive responsive eggs which have spoke wheel-like vessels. Both IGFBP3 and dnIGFIR inhibited chorioallantoic membrane angiogenesis induced by bFGF FIG. 14. The results are expressed as the percentages of embryos showing activation (FIG. 14A). Positivity for angiogenesis in chick embryos subjected to various conditions was as follows: Collagen alone: 1/5; bFGF (50 ng): 5/5; EV(10^4)+bFGF: 7/8; IGFBP3(10^4)+bFGF: 4/9; dnAKT (10^4)+bFGF: 8/9; dnIGFR (10^4)+bFGF: 4/9; and KP372 (100 nM)+bFGF: 8/9.

[7] = molecular target: IGF-I (Homo sapiens, UniProt P05019); assay: Western ligand blot of conditioned media; assay type: binding; conditions: conditioned media of Ad5CMV-BP3-infected H1299 cells, [125I]IGF-I probe
Protocol: Conditioned media were collected from H1299 cells after adenoviral infection. Western blot and Western ligand blot analyses were performed using 30 μg of whole cell lysate or 30 μl of conditioned media as previously described (Sueoka et al., 2000).

Chain of IGF-I (P05019 49-118 limits assumed, species assumed): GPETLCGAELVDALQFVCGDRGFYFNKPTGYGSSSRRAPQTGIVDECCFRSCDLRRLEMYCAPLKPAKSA
Chain of IGF-I (P17936 28-291 partner, species assumed): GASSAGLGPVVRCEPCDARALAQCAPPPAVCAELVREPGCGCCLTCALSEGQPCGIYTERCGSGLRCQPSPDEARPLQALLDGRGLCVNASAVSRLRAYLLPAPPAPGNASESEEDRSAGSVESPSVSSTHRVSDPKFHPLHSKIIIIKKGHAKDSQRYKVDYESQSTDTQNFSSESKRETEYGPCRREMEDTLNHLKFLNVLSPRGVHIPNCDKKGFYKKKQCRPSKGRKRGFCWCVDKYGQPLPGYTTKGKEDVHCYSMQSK

CC1=C(/C=C/C(C)=C/C=C/C(C)=C/C(=O)Nc2ccc(O)cc2)C(C)(C)CCC1 [4-HPR, N-(4-hydroxyphenyl)retinamide, reference compound]
levels of pAkt and pGSK-3β [1]: did not alter levels of pAkt and pGSK-3β | cell proliferation, control versus constitutively active Akt [2]: no difference in cell proliferation

IGF-I: insulin-like growth factor I, purchased from R&D Systems
effect on serum depletion-induced apoptosis [3]: rescued H1299 cells from serum depletion-induced apoptosis | concentration inducing growth of NSCLC cell lines [4]: > 10 ng/mL

Nc1ncn([C@H]2C[C@H](O)[C@@H](CO)O2)c(=O)n1 [5-aza-dC]
concentration reactivating IGFBP-3 expression [5]: More than 1 μM

IGF-II: IGF-II purchased from R&D Systems
mitogenic effect on NSCLC cell growth [4]: minimal mitogenic effect

bFGF: angiogenesis inducer, 50 ng/disk, in the CAM assay
positivity for angiogenesis in chick embryos [6]: 5/5

IGFBP-3: insulin growth factor binding protein 3 secreted from Ad5CMV-BP3-infected H1299 cells
binding of secreted IGFBP-3 to IGF-I [7]: bound strongly
